{"source": "ChEMBL document CHEMBL1149019", "about": "“Antineoplastic agents, 120. Pancratium littorale” (1986)", "type_in_all_cases": "functional", "key": {"[1]": {"experiment": "Cytotoxicity against mouse 9PS cells", "settings": "read-out: ED50 (the source's name)"}, "P388 [2]": {"system": "P388", "experiment": "In vivo cytotoxicity against mouse P388 cells at 12.5 mg/kg relative to control"}, "P388 [3]": {"system": "P388", "experiment": "In vivo cytotoxicity against mouse P388 cells at 25 mg/kg relative to control"}, "P388 [4]": {"system": "P388", "experiment": "In vivo cytotoxicity against mouse P388 cells at 0.75 to 6 mg/kg relative to control", "settings": "dose mg/kg 0.75-6"}, "M5076 [5]": {"system": "M5076", "experiment": "In vivo cytotoxicity against mouse M5076 cells at 0.38 to 3 mg/kg relative to control", "settings": "dose mg/kg 0.38-3"}, "P388 [6]": {"system": "P388", "experiment": "In vivo antitumor activity against mouse P388 cells assessed as life extension at 0.75 to 12.5 mg/kg", "settings": "dose mg/kg 0.75-12.5"}, "M5076 [7]": {"system": "M5076", "experiment": "In vivo antitumor activity against mouse M5076 cells assessed as life extension at 0.38 to 3 mg/kg", "settings": "dose mg/kg 0.38-3"}}, "data": [{"smiles": "O=C1N[C@@H]2C(=C[C@H](O)[C@@H](O)[C@H]2O)c2cc3c(cc21)OCO3", "values": [{"measurement": "EC50", "setting": "[1]", "result": 0.02, "unit": "µg/mL"}, {"measurement": "T/C", "setting": "P388 [2]", "result": 161}, {"measurement": "T/C", "setting": "P388 [3]", "result": 161}]}, {"smiles": "O=C1N[C@H]2[C@H](O)[C@H](O)[C@@H](O)[C@H](O)[C@@H]2c2cc3c(c(O)c21)OCO3", "note": "[PANCRATISTATIN]", "values": [{"measurement": "EC50", "setting": "[1]", "result": 0.01, "unit": "µg/mL"}, {"measurement": "T/C", "setting": "P388 [2]", "result": 206}, {"measurement": "T/C", "setting": "P388 [4]", "result": 138}, {"measurement": "T/C", "setting": "M5076 [5]", "result": 153}, {"measurement": "Activity", "setting": "P388 [6]", "result": 38, "unit": "%"}, {"measurement": "Activity", "setting": "M5076 [7]", "result": 53, "unit": "%"}]}]}
